Among the test systems are OVCAR-4 ovarian; NCI-H522 lung; SF-539 CNS; SK-MEL-2 melanoma; PC-3 prostate; CAKI-1 renal; COLO 205 colon; HL-60(TB) leukemia; KM12 colon.
What all share (assay): NCI anticancer screen, dose series, 48 h

Structures are written as SMILES.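 Assay format: 96-well plates, 48-hour exposure. GI50 = concentration required for 50% inhibition of growth. The concentration for full growth arrest is given as TGI.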

For twelve compounds, TGI and GI50 results are on record in PubChem BioAssay (NCI).

With `COc1ccc2oc(S(=O)(=O)N3CC(CCl)c4ccc(N)cc43)cc2c1` (stereo not drawn), the TGI was greater than 100 µM in the test on OVCAR-4 ovarian; greater than 67.6 µM in the test on NCI-H522 lung; greater than 41.4 µM in the test on SF-539 CNS; greater than 100 µM in the test with SK-MEL-2 melanoma; greater than 100 µM in the test with PC-3 prostate; greater than 86.3 µM with CAKI-1 renal. Besides, the TGI turned out to be 14.9 µM in the test on COLO 205 colon, 0.454 µM in the test with HL-60(TB) leukemia and 6.02 µM with KM12 colon.

Regarding `COC(=O)CCC1(CCC(=O)OC)CCCCCCC(CCC(=O)OC)(CCC(=O)OC)C(=O)C1=O`, the TGI in the test on NCI-H522 lung, in the test with SF-539 CNS, in the test with SK-MEL-2 melanoma, in the test with PC-3 prostate, with CAKI-1 renal and with COLO 205 colon was greater than 100 µM each time. Also, the TGI with KM12 colon is greater than 100 µM.

Take `O=C1C(CO)=C[C@H](O)[C@H]2O[C@@H]12`: the TGI was 317 µM in the test on OVCAR-4 ovarian; 164 µM in the test on NCI-H522 lung; greater than 562 µM in the test with SF-539 CNS; 345 µM in the test with SK-MEL-2 melanoma; 514 µM in the test on CAKI-1 renal; 209 µM with COLO 205 colon. The TGI is 253 µM in the test on HL-60(TB) leukemia and 219 µM in the test with KM12 colon.

Take `CCC(C)C(N)C(=O)N/N=C\c1c2c(nc3ccccc13)-c1cc3c(c(=O)n1C2)COC(=O)[C@]3(O)CC` (stereo partly drawn): the TGI in the test on OVCAR-4 ovarian was 52.6 µM; with NCI-H522 lung, 3.23 µM; in the test on SF-539 CNS it was 0.0223 µM; with SK-MEL-2 melanoma it was 6.59 µM; in the test with PC-3 prostate, greater than 100 µM; in the test with CAKI-1 renal it was 65.5 µM. Also, the TGI was greater than 51.6 µM in the test on COLO 205 colon, 0.68 µM in the test with HL-60(TB) leukemia and greater than 22.5 µM in the test with KM12 colon.

In the case of `c1ccc2c(c1)NCc1cc3ccccc3nc1O2`, the TGI in the test with OVCAR-4 ovarian, in the test on NCI-H522 lung, in the test with SF-539 CNS, in the test on SK-MEL-2 melanoma, in the test on CAKI-1 renal and in the test with COLO 205 colon was greater than 100 µM each time. The TGI with HL-60(TB) leukemia and in the test with KM12 colon was greater than 100 µM each time.

For the compound `COc1ccc(C2=[S+]C(c3ccccc3)(c3ccccc3)c3ccccc32)cc1`, the TGI was 62.2 µM in the test with OVCAR-4 ovarian; 79.8 µM in the test with NCI-H522 lung; 40.4 µM with SF-539 CNS; 33.3 µM in the test with SK-MEL-2 melanoma; greater than 100 µM with PC-3 prostate; greater than 100 µM in the test with CAKI-1 renal. Also, the TGI in the test on COLO 205 colon turned out to be 31.3 µM; with HL-60(TB) leukemia, 51.1 µM; in the test on KM12 colon, 31.1 µM.

`CCOC(=O)c1cn2c(n1)sc1cc(OC)ccc12`: the TGI in the test with OVCAR-4 ovarian, with NCI-H522 lung, in the test with SF-539 CNS, in the test with SK-MEL-2 melanoma, in the test on PC-3 prostate and in the test with CAKI-1 renal was greater than 100 µM each time. Besides, the TGI was greater than 27.5 µM with COLO 205 colon and greater than 100 µM in the test with KM12 colon.

Turning to `CC(O)c1cc2c(s1)C(=O)c1c(C(C)O)csc1C2=O` (stereo not drawn), the TGI came to 0.524 µM in the test with OVCAR-4 ovarian; 1.13 µM in the test with NCI-H522 lung; 0.449 µM in the test with SF-539 CNS; 0.292 µM with SK-MEL-2 melanoma; 0.514 µM with PC-3 prostate; 1.01 µM in the test with CAKI-1 renal. Moreover, the values for the TGI in the test on COLO 205 colon, in the test on HL-60(TB) leukemia and in the test on KM12 colon were 2.58 µM, 0.0415 µM and 1.08 µM, respectively.

`COc1cc(C2c3cc4c(cc3OC(NNS(=O)(=O)c3ccc(C)cc3)C2C)OCO4)cc(OC)c1OC` (stereo not drawn): the TGI was 48.4 µM with OVCAR-4 ovarian; 4.87 µM with NCI-H522 lung; 3.96 µM in the test on SF-539 CNS; 36.9 µM in the test with SK-MEL-2 melanoma; greater than 72.5 µM in the test on PC-3 prostate; 23.9 µM in the test on CAKI-1 renal. Moreover, the TGI turned out to be 16.8 µM in the test on COLO 205 colon, 6.59 µM in the test with HL-60(TB) leukemia and 32.3 µM in the test with KM12 colon.

For the compound `Cc1cc(N/N=C/c2nc(-c3ccc(Cl)cc3)oc2C)c2cc(Br)ccc2n1`, the GI50 was 1.87 µM in the test with OVCAR-4 ovarian; 2.02 µM in the test on NCI-H522 lung; 1.9 µM with SF-539 CNS; 17.5 µM in the test on SK-MEL-2 melanoma; 2.31 µM in the test with PC-3 prostate; 2.04 µM in the test on CAKI-1 renal. In addition, the values for the GI50 with COLO 205 colon, in the test on HL-60(TB) leukemia and in the test with KM12 colon were 2.86 µM, 2.2 µM and 2.21 µM, respectively. The TGI was determined as 3.69 µM in the test on OVCAR-4 ovarian; 4.51 µM in the test on NCI-H522 lung; 3.69 µM in the test with SF-539 CNS; 32.2 µM in the test on SK-MEL-2 melanoma; 6.07 µM with PC-3 prostate; 4.71 µM in the test on CAKI-1 renal. In addition, the TGI in the test on COLO 205 colon is 10.6 µM; in the test on HL-60(TB) leukemia, 5.44 µM; in the test with KM12 colon it was 5.43 µM.

Regarding `COc1ccc(-c2c(-c3ccc(OC)cc3)n3c(=O)n(C)c(=O)n23)cc1`, the TGI with OVCAR-4 ovarian was greater than 100 µM; with NCI-H522 lung, greater than 100 µM; with SF-539 CNS, 72.9 µM; in the test on SK-MEL-2 melanoma, greater than 100 µM; in the test on PC-3 prostate, greater than 100 µM; in the test on CAKI-1 renal, greater than 100 µM. Moreover, the TGI in the test with COLO 205 colon and in the test with KM12 colon was greater than 100 µM in each case.

Turning to `N#CCCN(CCC#N)c1ccc(/C=C2\N=C(c3ccccc3)N(c3ccc(C(=O)O)cc3)C2=O)cc1`, the TGI with OVCAR-4 ovarian is 66.8 µM; in the test on SF-539 CNS, 61.5 µM; in the test with SK-MEL-2 melanoma, greater than 100 µM; in the test with PC-3 prostate, greater than 100 µM; in the test with COLO 205 colon, greater than 100 µM; with KM12 colon, 31 µM.
